In patent US8889950B2, “Repression of AtGLR3.2 increases plant biomass” (The George Washington University, priority 2006, dated 2014):
Entries after “also recorded” stand apart in the source; their conditions may differ.

Experiments:
[1] = system: AtGLRs (PR and LR elongation of seedlings); assay: Root elongation of seedlings on plates with the iGLR antagonist DNQX; format: in vivo, Arabidopsis thaliana
Method: A. Control, B. DNQX treated. Note the lack of LR in DNQX-treated seedlings (b) versus LR in DMSO control. Both plates contained 10 μM KNO3. DNQX is an inhibitor (antagonist) of animal iGLRs and plant GLRs. The lateral root in the DMSO control is indicated by an arrow.
Note glutamate is the natural binding chemical (ligand) to animal iGLRS and puataive ligand for plant GLRs.
The present invention describes the function for AtGLRs in N sensing, absorption (FIG. 3, Forde, B G. 2002. Annu. Rev. Plant Biol. 53:203), assimilation (FIG. 12), plant growth and development (FIG. 11, 13). These claims were validated with pharmacological (FIG. 6-9), physiological (FIG. 10, 11, 13) and immunobot analyses of N assimilatory enzymes (FIG. 12).
(§1) The genetic and physiological analyses described above were complemented with pharmacological studies where the functions of AtGLRs were inhibited with iGLR specific inhibitors/antagonists. […] L-Glu is the bioactive ligand for iGLRs. […] Thus the inhibitors of AtGLRs can block LR elongation drastically and specifically. Furthermore DNQX mediated LR elongation inhibition is reversed by L-Glu.

LR primordia = assay: Microscopic analysis of LR primordia (LRP) formation and elongation; format: in vivo, Arabidopsis thaliana; conditions: 400 μM DNQX vs DMSO control
Source text: B. DMSO control had fully emerged LR and more LRPs Arrows indicate an LRP that is inhibited, (A) or a fully emerged LR, (B).
as §1

DR5::GUS = assay: Histochemical GUS assay in auxin responsive reporter DR5::GUS seedlings; format: in vivo, Arabidopsis thaliana
Method: DR5::GUS reporter was grown for 10 days and subjected to histochemical GUS staining for 10 hrs. The development of blue color indicates the detection of the presence of auxins that function in the regulation and formation of lateral roots
To assess the role of auxins in the AtGLR response, the effect of DNQX on auxin levels were evaluated. Auxin responsive reporter plants carrying the expression system DR5::GUS were used in the histochemical assays. […] Similar results were reported in phosphate starvation studies (Nacry et al. 2005 Plant Physiol. 138:2061).

[2] = system: L-Glu induced ion channel activity in plants; conditions: Mayerhoff et al. 2005. Planta. 222:418; cited from earlier work

## O=c1[nH]c2cc([N+](=O)[O-])c([N+](=O)[O-])cc2[nH]c1=O [DNQX, 6,7 dinitroquinoxaline-2-3-[1H,4H]-dione]
[1]; DNQX at 400 μM, DMSO control, plates with 10 μM KNO3
  PR and LR growth and elongation: inhibit PR and LR elongation; also recorded: inhibit LR growth and elongation
[1]; coincubation with 10 mM L-glutamate
  Reversal of DNQX mediated inhibition by coincubation with L-Glu: restored to normal growth; also recorded: can be reversed
[1]; seedlings transferred to a media without DNQX
  Reversibility of DNQX mediated PR and LR inhibition: restored to normal growth; also recorded: reversibly and temporarily
LR primordia
  Further elongation of LR primordia: further elongation of primordia is inhibited; also recorded: inhibits number of LRP formed and their elongation
  Number of LRP formed (LR primordia initiation): reduced the number of LR primordia initiation; also recorded: inhibits number of LRP formed
DR5::GUS; 400 μM DNQX, grown 10 days, GUS staining for 10 hrs, vs control plants
  Auxin levels in PR and LR apex/primordia (DR5::GUS expression): higher levels of auxins in PR and LR primordia; also recorded: hyper accumulation of auxins
DR5::GUS; incubated with 400 μM DNQX
  LR and PR elongation of DR5::GUS seedlings: inhibition of LR and PR elongation
[2]
  L-Glu induced ion channel activity in plants: block L-Glu induced ion channel activity
